In ChEMBL document CHEMBL5579839, “Discovery of new cyclopropane sulfonamide derivatives as EGFR inhibitors to overcome C797S-mediated resistance and EGFR double mutation” (Eur J Med Chem, 2024):
Activity calls are given as the source filed them. The calls are words filed in the database; no cut-off is given here.

Columns and labels:
BaF3 [1] = experiment: Antiproliferative activity against mouse BaF3 cells harboring EGFR C797S/L858R/T790M mutant; assay type: functional, cell-based
NCI-H1975 [2] = experiment: Antiproliferative activity against human NCI-H1975 cells assessed as inhibition of sphere formation incubated for 72 hrs by CCK8 assay; assay type: functional, cell-based; conditions: NCI-H1975, 72 h
BaF3 [3] = experiment: Antiproliferative activity against mouse BaF3 cells harboring EGFR L858R/T790M/C797S mutant assessed as inhibition of sphere formation incubated for 72 hrs by CCK8 assay; assay type: functional, cell-based; conditions: BaF3, 72 h
BaF3 [4] = experiment: Induction of apoptosis in mouse BaF3 cells harboring EGFR L858R/T790M/C797S mutant assessed as increase in green fluorescence at 10 to 25 nM by TUNNEL method; assay type: functional, cell-based; conditions: dose 10-25 nM
NCI-H1975 [5] = experiment: Induction of apoptosis in human NCI-H1975 cells assessed as late apoptotic cells at 10 nM incubated for 24 hrs by Annexin V-FITC/PI staining based flow cytometry (reference value: 3.55 %); assay type: functional
BaF3 [6] = experiment: Induction of apoptosis in mouse BaF3 cells harboring EGFR L858R/T790M/C797S mutant assessed as viable cells at 10 nM incubated for 24 hrs by Annexin V-FITC/PI staining based flow cytometry (reference value: 99.77 %); assay type: functional; conditions: read-out: Activity
BaF3 [7] = experiment: Induction of apoptosis in mouse BaF3 cells harboring EGFR L858R/T790M/C797S mutant assessed as late apoptotic cells at 10 nM incubated for 24 hrs by Annexin V-FITC/PI staining based flow cytometry (reference value: 0.02 %); assay type: functional
NCI-H1975 [8] = experiment: Inhibition of cell invasion in human NCI-H1975 cells by transwell assay; assay type: functional, cell-based
BaF3 [9] = experiment: Antitumor activity against mouse BaF3 cells allografted in nude mouse at 50 mg/kg, po measured for 7 days relative to control; assay type: functional; conditions: BaF3, 168 h, time 7 day, read-out: TGI
[10] = Toxicity in nude mouse allografted with mouse BaF3 cells assessed as animal abnormality at 50 mg/kg, po measured for 7 days; assay type: organism-based; conditions: in vivo, 168 h, time 7 day
NCI-H1975 [11] = experiment: Antitumor activity against human NCI-H1975 cells xenografted in nude mouse at 50 mg/kg, po measured for 7 days relative to control; assay type: functional; conditions: NCI-H1975, 168 h, time 7 day, read-out: TGI
[12] = Toxicity in nude mouse xenografted with human NCI-H1975 cells assessed as body weight loss at 50 mg/kg, po measured for 7 days; assay type: organism-based; conditions: in vivo, 168 h, time 7 day
[13] = biological target: Epidermal growth factor receptor (Homo sapiens, UniProt P00533); experiment: Inhibition of EGFR phosphorylation in human NCI-H1975 cells assessed as reduction in red fluorescence incubated for 24 hrs by immunofluorescence analysis; assay type: cell-based
Epidermal growth factor receptor, sequence (P00533 whole entry): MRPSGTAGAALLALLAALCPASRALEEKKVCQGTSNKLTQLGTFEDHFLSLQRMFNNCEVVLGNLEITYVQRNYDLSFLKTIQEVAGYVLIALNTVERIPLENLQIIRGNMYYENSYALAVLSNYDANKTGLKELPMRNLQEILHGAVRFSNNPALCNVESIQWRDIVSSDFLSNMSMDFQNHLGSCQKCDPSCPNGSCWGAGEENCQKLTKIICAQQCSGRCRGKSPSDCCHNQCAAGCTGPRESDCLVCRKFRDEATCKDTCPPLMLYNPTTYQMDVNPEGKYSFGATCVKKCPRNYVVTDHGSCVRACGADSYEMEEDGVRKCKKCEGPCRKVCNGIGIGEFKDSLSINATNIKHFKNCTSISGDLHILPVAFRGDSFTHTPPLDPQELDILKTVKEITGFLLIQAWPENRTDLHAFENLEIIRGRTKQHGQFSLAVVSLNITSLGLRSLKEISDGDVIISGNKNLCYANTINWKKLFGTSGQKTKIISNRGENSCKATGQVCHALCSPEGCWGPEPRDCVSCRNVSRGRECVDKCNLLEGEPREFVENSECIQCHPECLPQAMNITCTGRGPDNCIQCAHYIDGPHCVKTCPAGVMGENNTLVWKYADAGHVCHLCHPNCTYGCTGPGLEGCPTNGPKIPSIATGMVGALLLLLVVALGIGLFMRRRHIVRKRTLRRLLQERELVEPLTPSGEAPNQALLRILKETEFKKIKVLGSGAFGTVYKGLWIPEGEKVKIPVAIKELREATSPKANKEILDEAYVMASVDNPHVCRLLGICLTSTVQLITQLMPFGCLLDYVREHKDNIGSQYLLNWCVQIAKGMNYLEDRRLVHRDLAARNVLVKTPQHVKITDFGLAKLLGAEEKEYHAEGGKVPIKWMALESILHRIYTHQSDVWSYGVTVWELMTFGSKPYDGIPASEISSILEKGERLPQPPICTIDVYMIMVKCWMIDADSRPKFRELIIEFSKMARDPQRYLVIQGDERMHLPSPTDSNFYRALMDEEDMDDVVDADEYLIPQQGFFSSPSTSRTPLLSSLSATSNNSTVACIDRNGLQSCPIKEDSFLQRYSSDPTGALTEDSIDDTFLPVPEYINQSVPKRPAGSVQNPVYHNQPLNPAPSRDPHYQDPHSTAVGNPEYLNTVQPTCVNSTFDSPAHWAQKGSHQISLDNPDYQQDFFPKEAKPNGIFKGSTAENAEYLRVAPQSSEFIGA

BaF3 [14] = experiment: Inhibition of EGFR L858R/T790M/C797S mutant phosphorylation in mouse BaF3 cells assessed as reduction in red fluorescence incubated for 24 hrs by immunofluorescence analysis; assay type: cell-based
BaF3 [15] = experiment: Inhibition of neovascularization in mouse BaF3 cells allografted in nude mouse at 50 mg/kg, po for 7 days; assay type: functional, organism-based; conditions: time 7.0 day
[16] = Toxicity in nude mouse allografted with mouse BaF3 cells assessed as damage in liver at 50 mg/kg, po for 7 days by H and E staining based analysis; assay type: organism-based; conditions: in vivo, 168 h, time 7 day
[17] = Toxicity in nude mouse allografted with mouse BaF3 cells assessed as damage in spleen at 50 mg/kg, po for 7 days by H and E staining based analysis; assay type: organism-based; conditions: in vivo, 168 h, time 7 day
[18] = Toxicity in nude mouse allografted with mouse BaF3 cells assessed as damage in lung at 50 mg/kg, po for 7 days by H and E staining based analysis; assay type: organism-based; conditions: in vivo, 168 h, time 7 day
[19] = Toxicity in nude mouse allografted with mouse BaF3 cells assessed as lesion in liver at 50 mg/kg, po for 7 days by H and E staining based analysis; assay type: organism-based; conditions: in vivo, 168 h, time 7 day
[20] = Toxicity in nude mouse allografted with mouse BaF3 cells assessed as lesion in kidney at 50 mg/kg, po for 7 days by H and E staining based analysis; assay type: organism-based; conditions: in vivo, 168 h, time 7 day
Homo sapiens = species: Homo sapiens; experiment: Binding affinity to FGFR (unknown origin) at 100 nM by kinase profiling analysis
[21] = biological target: Platelet-derived growth factor receptor beta (Homo sapiens) (UniProt P09619); experiment: Binding affinity to PDGFR (unknown origin) at 100 nM by kinase profiling analysis
Platelet-derived growth factor receptor beta (Homo sapiens), sequence (P09619 whole entry): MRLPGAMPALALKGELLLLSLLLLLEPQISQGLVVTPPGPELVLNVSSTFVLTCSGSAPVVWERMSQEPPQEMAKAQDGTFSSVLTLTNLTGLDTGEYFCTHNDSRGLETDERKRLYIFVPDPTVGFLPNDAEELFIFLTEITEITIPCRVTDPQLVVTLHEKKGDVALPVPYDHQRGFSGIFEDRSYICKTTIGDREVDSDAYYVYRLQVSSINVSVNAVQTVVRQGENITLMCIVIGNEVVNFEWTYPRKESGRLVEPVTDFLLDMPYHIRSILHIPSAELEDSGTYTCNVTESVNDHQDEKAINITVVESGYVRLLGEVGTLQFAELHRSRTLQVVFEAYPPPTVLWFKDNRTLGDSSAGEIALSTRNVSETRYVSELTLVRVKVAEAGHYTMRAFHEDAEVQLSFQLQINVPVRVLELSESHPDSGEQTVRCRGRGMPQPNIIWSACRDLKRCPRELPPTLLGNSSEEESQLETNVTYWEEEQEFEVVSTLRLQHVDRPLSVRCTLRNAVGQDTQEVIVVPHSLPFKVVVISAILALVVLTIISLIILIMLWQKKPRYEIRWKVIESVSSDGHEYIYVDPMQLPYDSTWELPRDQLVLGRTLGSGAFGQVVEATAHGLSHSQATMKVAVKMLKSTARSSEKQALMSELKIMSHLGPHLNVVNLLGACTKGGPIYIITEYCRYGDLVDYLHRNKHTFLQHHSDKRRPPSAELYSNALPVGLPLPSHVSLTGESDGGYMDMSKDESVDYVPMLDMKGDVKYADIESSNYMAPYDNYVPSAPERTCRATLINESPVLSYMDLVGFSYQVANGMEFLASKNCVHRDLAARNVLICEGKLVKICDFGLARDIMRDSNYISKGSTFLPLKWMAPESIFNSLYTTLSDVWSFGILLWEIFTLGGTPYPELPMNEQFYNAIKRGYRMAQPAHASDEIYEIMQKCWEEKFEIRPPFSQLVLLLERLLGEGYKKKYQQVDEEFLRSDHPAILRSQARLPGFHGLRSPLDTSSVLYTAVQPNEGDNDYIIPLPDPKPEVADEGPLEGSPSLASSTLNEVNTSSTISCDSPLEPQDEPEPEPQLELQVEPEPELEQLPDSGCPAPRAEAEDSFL

CN1CCCN(c2ccc(Nc3ncc(Br)c(Nc4ccccc4NS(=O)(=O)C4CC4)n3)cc2)CC1
IC50 (BaF3 [1]): 4 nM
IC50 (NCI-H1975 [2]): 33.8 nM
IC50 (BaF3 [3]): 11.2 nM
Activity (BaF3 [4]): Active
Activity (NCI-H1975 [5]): 6.42%
viability at 0.01 µM (BaF3 [6]): 20.7%
Activity (BaF3 [7]): 69.42%
inhibition (NCI-H1975 [8]): Active
inhibition in vivo at 50 mg/kg (BaF3 [9]): 71.2%
Activity [10]: Non-Toxic
inhibition in vivo at 50 mg/kg (NCI-H1975 [11]): 83.5%
Activity [12]: Non-Toxic
inhibition [13]: Active
inhibition (BaF3 [14]): Active
inhibition (BaF3 [15]): Active
Activity [16]: Non-Toxic
Activity [17]: Non-Toxic
Activity [18]: Non-Toxic
Activity [19]: Non-Toxic
Activity [20]: Non-Toxic
Activity (Homo sapiens): Active
Activity [21]: Active
